The record followed here is ChEMBL document CHEMBL5143679, “Discovery of 3, 6-disubstituted isobenzofuran-1(3H)-ones as novel inhibitors of monoamine oxidases” (Bioorg Med Chem Lett, 2022).

This assay has as its target T1, Amine oxidase [flavin-containing] A (Rattus norvegicus, UniProt P21396).
T1 sequence (P21396 whole entry): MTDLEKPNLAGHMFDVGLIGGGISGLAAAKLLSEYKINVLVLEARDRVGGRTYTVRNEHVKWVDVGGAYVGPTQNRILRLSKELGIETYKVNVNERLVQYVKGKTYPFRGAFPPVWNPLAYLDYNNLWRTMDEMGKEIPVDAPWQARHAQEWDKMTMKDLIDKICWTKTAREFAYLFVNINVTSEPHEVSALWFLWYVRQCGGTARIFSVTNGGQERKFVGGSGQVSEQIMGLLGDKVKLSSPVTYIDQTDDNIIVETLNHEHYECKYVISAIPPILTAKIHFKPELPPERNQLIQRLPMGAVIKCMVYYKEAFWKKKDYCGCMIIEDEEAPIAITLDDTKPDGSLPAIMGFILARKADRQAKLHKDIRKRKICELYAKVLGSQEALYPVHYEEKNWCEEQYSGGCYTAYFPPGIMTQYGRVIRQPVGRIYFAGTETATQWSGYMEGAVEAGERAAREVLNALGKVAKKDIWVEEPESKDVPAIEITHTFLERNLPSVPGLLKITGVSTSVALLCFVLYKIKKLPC
Description: Inhibition of Sprague-Dawley rat MAO-A.

By IC50 is commonly meant the concentration that inhibits the measured activity by half. Higher therefore signals weaker potency in that assay. Turning to `C[C@H](NCc1ccc(OCc2cccc(F)c2)cc1)C(N)=O` [SAFINAMIDE], the half-inhibitory concentration (IC50) is 2800 nM.
